Measured values reported in patent US5545547A, “Enzymes as agricultural chemical adjuvants” (priority 1992, dated 1996).

Legend:
Type in all cases: in vivo
[1] = tested on: Soybeans; assay: Greenhouse multispecies herbicide screen with/without P. mendocina enzyme; details: two weeks after treatment
Source text: (§1) Several plant species including weeds and crops are used in these experiments.
(§2) A number of herbicides from various chemical classes were compared in a multispecies screen for percent chlorosis, necrosis and vigor reduction both with and without application of the enzyme from Pseudomonas mendocina ATCC 53552 described earlier. The herbicides were applied to various plants at the manufacturers recommended doses and at 10% and 40% of the recommended dose. Two different enzyme concentrations were used: 0.5 mg/ml (HE) and 0.05 mg/ml (LE) and applied at the rate of 40 gallons/acre. All spraying solutions were at pH 10 and contained 100 mm sodium phosphate each. Ratings were done at 6 and 12 days after the treatment. All the experiments were carried out in a greenhouse.
(§3) Chlorosis--figures represent percent of plants showing chlorosis.
(§4) Necrosis--figures represent percent of plants showing necrosis.
(§5) Vigor--figures represent percent of plants showing decreased vigor.
(§6) Phytotoxicity--figures represent the average percent of chlorosis, necrosis, and vigor for a given sample.
(§7) The method of Example 1 was used except that the enzyme was applied 2 hours prior to administering the agricultural chemical with the following results. Ratings were done two weeks after treatment

[2] = tested on: Turnip; assay: as above; details: for CHL (chlorosis) / NEC (necrosis) / PHY (phytotoxicity) / VIG (vigor) / % PHY (phytotoxicity): two weeks after treatment
Source text: as §1, §2, §3, §4, §5, §6, §7

[3] = tested on: various plants; assay: Greenhouse multispecies herbicide screen, statements on all tested plants
Source text: as §1
as §2, with “Ratings were done at 6 and 12 days after the treatment.” left out

[4] = Example 8: BASAGRAN 10% dose, High Enzyme applied 2 hours prior
[5] = Example 8: BASAGRAN 10% dose, Low Enzyme applied 2 hours prior
[6] = Example 8: BASAGRAN 10% dose, No Enzyme

CN(C)C(=O)Nc1ccc(Cl)c(Cl)c1 [KARMEX, 3-(3,4-dichlorophenyl)-1,1-dimethylurea]
CHL (chlorosis) ([1]; KARMEX 10% dose, High Enzyme): 0% | NEC (necrosis) ([1]; KARMEX 10% dose, High Enzyme): 0% | PHY (phytotoxicity) ([1]; KARMEX 10% dose, High Enzyme): 0% | VIG (vigor) ([1]; KARMEX 10% dose, High Enzyme): 0% | CHL (chlorosis) ([1]; KARMEX 10% dose, Low Enzyme): 0% | NEC (necrosis) ([1]; KARMEX 10% dose, Low Enzyme): 0% | PHY (phytotoxicity) ([1]; KARMEX 10% dose, Low Enzyme): 0% | VIG (vigor) ([1]; KARMEX 10% dose, Low Enzyme): 0% | CHL (chlorosis) ([1]; KARMEX 10% dose, No Enzyme): 0% | NEC (necrosis) ([1]; KARMEX 10% dose, No Enzyme): 0% | PHY (phytotoxicity) ([1]; KARMEX 10% dose, No Enzyme): 0% | VIG (vigor) ([1]; KARMEX 10% dose, No Enzyme): 0% | CHL (chlorosis) ([1]; KARMEX 40% dose, High Enzyme): 0% | NEC (necrosis) ([1]; KARMEX 40% dose, High Enzyme): 13% | PHY (phytotoxicity) ([1]; KARMEX 40% dose, High Enzyme): 8% | VIG (vigor) ([1]; KARMEX 40% dose, High Enzyme): 10% | CHL (chlorosis) ([1]; KARMEX 40% dose, Low Enzyme): 0% | NEC (necrosis) ([1]; KARMEX 40% dose, Low Enzyme): 15% | PHY (phytotoxicity) ([1]; KARMEX 40% dose, Low Enzyme): 6% | VIG (vigor) ([1]; KARMEX 40% dose, Low Enzyme): 5% | CHL (chlorosis) ([1]; KARMEX 40% dose, No Enzyme): 0% | NEC (necrosis) ([1]; KARMEX 40% dose, No Enzyme): 10% | PHY (phytotoxicity) ([1]; KARMEX 40% dose, No Enzyme): 3% | VIG (vigor) ([1]; KARMEX 40% dose, No Enzyme): 0% | CHL (chlorosis) ([2]; KARMEX 10% dose, High Enzyme): 18% | NEC (necrosis) ([2]; KARMEX 10% dose, High Enzyme): 15% | PHY (phytotoxicity) ([2]; KARMEX 10% dose, High Enzyme): 11% | VIG (vigor) ([2]; KARMEX 10% dose, High Enzyme): 0% | CHL (chlorosis) ([2]; KARMEX 10% dose, Low Enzyme): 18% | NEC (necrosis) ([2]; KARMEX 10% dose, Low Enzyme): 15% | PHY (phytotoxicity) ([2]; KARMEX 10% dose, Low Enzyme): 11% | VIG (vigor) ([2]; KARMEX 10% dose, Low Enzyme): 5% | CHL (chlorosis) ([2]; KARMEX 10% dose, No Enzyme): 28% | NEC (necrosis) ([2]; KARMEX 10% dose, No Enzyme): 10% | PHY (phytotoxicity) ([2]; KARMEX 10% dose, No Enzyme): 13% | VIG (vigor) ([2]; KARMEX 10% dose, No Enzyme): 0% | CHL (chlorosis) ([2]; KARMEX 40% dose, High Enzyme): 35% | NEC (necrosis) ([2]; KARMEX 40% dose, High Enzyme): 25% | PHY (phytotoxicity) ([2]; KARMEX 40% dose, High Enzyme): 36% | VIG (vigor) ([2]; KARMEX 40% dose, High Enzyme): 50% | CHL (chlorosis) ([2]; KARMEX 40% dose, Low Enzyme): 30% | NEC (necrosis) ([2]; KARMEX 40% dose, Low Enzyme): 50% | PHY (phytotoxicity) ([2]; KARMEX 40% dose, Low Enzyme): 41% | VIG (vigor) ([2]; KARMEX 40% dose, Low Enzyme): 43% | CHL (chlorosis) ([2]; KARMEX 40% dose, No Enzyme): 25% | NEC (necrosis) ([2]; KARMEX 40% dose, No Enzyme): 38% | PHY (phytotoxicity) ([2]; KARMEX 40% dose, No Enzyme): 33% | VIG (vigor) ([2]; KARMEX 40% dose, No Enzyme): 37% | Phytotoxicity with enzyme ([2]; KARMEX at 40% of the recommended dosage, with enzyme, sprayed on turnips): increased phytotoxicity | Phytotoxicity ([3]; KARMEX under the test conditions): low

CC(C)N1C(=O)c2ccccc2NS1(=O)=O [BASAGRAN, 3-(1-methylethyl)-1H-,2,1,3-benzothiadiazin-4(3H)-one 2,2-dioxide]
CHL (chlorosis) ([1]; BASAGRAN 10% dose, High Enzyme): 18% | NEC (necrosis) ([1]; BASAGRAN 10% dose, High Enzyme): 38% | PHY (phytotoxicity) ([1]; BASAGRAN 10% dose, High Enzyme): 43% | VIG (vigor) ([1]; BASAGRAN 10% dose, High Enzyme): 73% | CHL (chlorosis) ([1]; BASAGRAN 10% dose, Low Enzyme): 18% | NEC (necrosis) ([1]; BASAGRAN 10% dose, Low Enzyme): 43% | PHY (phytotoxicity) ([1]; BASAGRAN 10% dose, Low Enzyme): 37% | VIG (vigor) ([1]; BASAGRAN 10% dose, Low Enzyme): 50% | CHL (chlorosis) ([1]; BASAGRAN 10% dose, No Enzyme): 5% | NEC (necrosis) ([1]; BASAGRAN 10% dose, No Enzyme): 5% | PHY (phytotoxicity) ([1]; BASAGRAN 10% dose, No Enzyme): 8% | VIG (vigor) ([1]; BASAGRAN 10% dose, No Enzyme): 13% | % PHY (phytotoxicity) [1, 4]: 2% | CHL (chlorosis) [1, 4]: 0% | NEC (necrosis) [1, 4]: 5% | VIG (vigor) [1, 4]: 0% | % PHY (phytotoxicity) [1, 5]: 48% | CHL (chlorosis) [1, 5]: 48% | NEC (necrosis) [1, 5]: 48% | VIG (vigor) [1, 5]: 48% | % PHY (phytotoxicity) [1, 6]: 25% | CHL (chlorosis) [1, 6]: 25% | NEC (necrosis) [1, 6]: 25% | VIG (vigor) [1, 6]: 25% | CHL (chlorosis) ([2]; BASAGRAN 10% dose, High Enzyme): 38% | NEC (necrosis) ([2]; BASAGRAN 10% dose, High Enzyme): 50% | PHY (phytotoxicity) ([2]; BASAGRAN 10% dose, High Enzyme): 50% | VIG (vigor) ([2]; BASAGRAN 10% dose, High Enzyme): 63% | CHL (chlorosis) ([2]; BASAGRAN 10% dose, Low Enzyme): 38% | NEC (necrosis) ([2]; BASAGRAN 10% dose, Low Enzyme): 63% | PHY (phytotoxicity) ([2]; BASAGRAN 10% dose, Low Enzyme): 59% | VIG (vigor) ([2]; BASAGRAN 10% dose, Low Enzyme): 75% | CHL (chlorosis) ([2]; BASAGRAN 10% dose, No Enzyme): 25% | NEC (necrosis) ([2]; BASAGRAN 10% dose, No Enzyme): 25% | PHY (phytotoxicity) ([2]; BASAGRAN 10% dose, No Enzyme): 29% | VIG (vigor) ([2]; BASAGRAN 10% dose, No Enzyme): 38% | % PHY (phytotoxicity) [2, 4]: 41% | CHL (chlorosis) [2, 4]: 30% | NEC (necrosis) [2, 4]: 50% | VIG (vigor) [2, 4]: 43% | % PHY (phytotoxicity) [2, 5]: 78% | CHL (chlorosis) [2, 5]: 63% | NEC (necrosis) [2, 5]: 85% | VIG (vigor) [2, 5]: 85% | % PHY (phytotoxicity) [2, 6]: 48% | CHL (chlorosis) [2, 6]: 25% | NEC (necrosis) [2, 6]: 63% | VIG (vigor) [2, 6]: 55% | Plants killed ([3]; BASAGRAN applied at 40% of the recommended dosage, two weeks after treatment): completely killed
